Legend:
[1] = molecular target: Sodium-dependent noradrenaline transporter (Homo sapiens, UniProt P23975); test: DRUGMATRIX: Norepinephrine Transporter radioligand binding (ligand: [125I] RTI-55); assay type: cell membranes, MDCK, Membrane; conditions: Not Active = under 50% inhibition at 10 µM
[2] = molecular target: T1, 5-hydroxytryptamine receptor 2C (Homo sapiens, UniProt P28335); test: DRUGMATRIX: Serotonin (5-Hydroxytryptamine) 5-HT2C radioligand binding (ligand: [3H] Mesulergine); assay type: cell membranes, CHO-K1, Membrane; conditions: Not Active = under 50% inhibition at 10 µM
T1 sequence (P28335 whole entry): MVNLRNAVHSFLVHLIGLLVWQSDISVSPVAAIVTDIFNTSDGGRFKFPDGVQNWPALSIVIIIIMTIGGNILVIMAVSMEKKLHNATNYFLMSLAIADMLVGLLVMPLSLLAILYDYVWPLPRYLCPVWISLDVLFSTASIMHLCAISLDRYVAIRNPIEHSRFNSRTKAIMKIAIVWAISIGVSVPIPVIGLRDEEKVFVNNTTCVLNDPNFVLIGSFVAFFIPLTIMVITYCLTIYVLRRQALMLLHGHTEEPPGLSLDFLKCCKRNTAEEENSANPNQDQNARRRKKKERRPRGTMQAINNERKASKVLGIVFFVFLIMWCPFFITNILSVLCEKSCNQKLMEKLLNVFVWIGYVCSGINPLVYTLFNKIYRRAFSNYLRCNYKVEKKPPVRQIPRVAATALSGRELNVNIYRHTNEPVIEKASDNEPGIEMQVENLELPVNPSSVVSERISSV

Substance-K receptor = molecular target: T2, Substance-K receptor (Homo sapiens, UniProt P21452); assay type: cell membranes, CHO, Membrane; conditions: cho; further: in other assays of this panel Not Active means under 50% inhibition at 10 µM
T2 sequence (P21452 whole entry): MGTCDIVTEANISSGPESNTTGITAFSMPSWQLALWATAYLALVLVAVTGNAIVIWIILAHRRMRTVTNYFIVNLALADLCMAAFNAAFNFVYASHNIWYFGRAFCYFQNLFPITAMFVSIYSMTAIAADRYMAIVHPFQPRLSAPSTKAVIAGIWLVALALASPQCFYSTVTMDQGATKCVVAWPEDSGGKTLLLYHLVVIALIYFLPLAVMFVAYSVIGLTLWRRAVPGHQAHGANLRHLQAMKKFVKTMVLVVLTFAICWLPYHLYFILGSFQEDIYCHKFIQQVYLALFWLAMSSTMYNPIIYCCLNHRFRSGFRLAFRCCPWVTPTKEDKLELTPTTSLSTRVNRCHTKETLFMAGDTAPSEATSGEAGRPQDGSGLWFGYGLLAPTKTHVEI

[3] = DRUGMATRIX: GABAA, Muscimol, Central radioligand binding (ligand: [3H] Muscimol); assay type: cell membranes, Rattus norvegicus, Wistar, Brain, Membrane; conditions: Not Active = under 50% inhibition at 10 µM
Histamine H2 receptor = Histamine H2 receptor (Homo sapiens, UniProt P25021); assay type: cell membranes, CHO-K1, Membrane; conditions: cho-k1; further: in other assays of this panel Not Active means under 50% inhibition at 10 µM
Sequence of Histamine H2 receptor (P25021 whole entry): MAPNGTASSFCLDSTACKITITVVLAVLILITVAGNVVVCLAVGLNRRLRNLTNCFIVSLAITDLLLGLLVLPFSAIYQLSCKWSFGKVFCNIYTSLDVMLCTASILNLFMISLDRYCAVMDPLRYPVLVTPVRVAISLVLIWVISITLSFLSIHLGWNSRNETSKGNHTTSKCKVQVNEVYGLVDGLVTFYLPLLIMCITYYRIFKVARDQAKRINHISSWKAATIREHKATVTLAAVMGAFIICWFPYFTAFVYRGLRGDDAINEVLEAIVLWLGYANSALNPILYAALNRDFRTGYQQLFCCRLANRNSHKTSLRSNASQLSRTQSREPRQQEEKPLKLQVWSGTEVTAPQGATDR

Melanocortin receptor 3 = Melanocortin receptor 3 (Homo sapiens, UniProt P41968); assay type: cell membranes, Membrane; conditions: hek293; further: in other assays of this panel Not Active means under 50% inhibition at 10 µM
Sequence of Melanocortin receptor 3 (P41968 whole entry): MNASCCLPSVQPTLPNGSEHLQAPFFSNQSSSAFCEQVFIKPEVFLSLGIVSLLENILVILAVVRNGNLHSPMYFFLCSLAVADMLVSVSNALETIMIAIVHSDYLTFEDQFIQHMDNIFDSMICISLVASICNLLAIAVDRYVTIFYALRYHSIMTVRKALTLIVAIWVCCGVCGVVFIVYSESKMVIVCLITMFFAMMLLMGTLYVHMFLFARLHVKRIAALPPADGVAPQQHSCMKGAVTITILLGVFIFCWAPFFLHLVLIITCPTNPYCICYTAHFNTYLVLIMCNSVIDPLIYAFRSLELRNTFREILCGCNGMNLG

Cathepsin G = molecular target: T3, Cathepsin G (Homo sapiens, UniProt P08311); assay type: tissue-based; conditions: neutrophil;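 further: inhibition of Cathepsin G enzyme activity, tested on an AMC-conjugated peptide substrate; in other assays of this panel Not Active means under 50% inhibition at 10 µM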
T3 sequence (P08311 whole entry): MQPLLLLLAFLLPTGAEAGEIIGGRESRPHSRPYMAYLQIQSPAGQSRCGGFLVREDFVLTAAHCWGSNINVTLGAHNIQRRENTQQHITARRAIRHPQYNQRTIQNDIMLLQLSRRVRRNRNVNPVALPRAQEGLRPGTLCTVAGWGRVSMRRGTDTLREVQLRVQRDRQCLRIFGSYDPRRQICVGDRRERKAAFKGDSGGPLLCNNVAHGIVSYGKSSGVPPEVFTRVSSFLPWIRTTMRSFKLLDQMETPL

Sequence of Sodium-dependent noradrenaline transporter (P23975 whole entry): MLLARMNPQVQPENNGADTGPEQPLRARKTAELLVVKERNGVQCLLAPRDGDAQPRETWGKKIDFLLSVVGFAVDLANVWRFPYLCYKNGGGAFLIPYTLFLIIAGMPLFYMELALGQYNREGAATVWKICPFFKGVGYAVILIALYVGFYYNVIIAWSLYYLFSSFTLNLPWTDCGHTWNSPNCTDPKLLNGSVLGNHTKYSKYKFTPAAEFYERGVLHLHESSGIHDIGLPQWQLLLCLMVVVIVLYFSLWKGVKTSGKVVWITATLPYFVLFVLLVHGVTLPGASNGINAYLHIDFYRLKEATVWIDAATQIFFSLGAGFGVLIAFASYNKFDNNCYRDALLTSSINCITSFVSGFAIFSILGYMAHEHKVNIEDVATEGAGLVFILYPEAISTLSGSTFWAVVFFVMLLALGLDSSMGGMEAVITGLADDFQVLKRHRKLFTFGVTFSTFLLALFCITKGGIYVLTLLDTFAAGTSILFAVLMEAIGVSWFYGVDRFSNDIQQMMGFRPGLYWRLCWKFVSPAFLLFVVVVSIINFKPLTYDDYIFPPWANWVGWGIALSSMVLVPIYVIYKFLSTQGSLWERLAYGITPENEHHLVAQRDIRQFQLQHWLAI

Row | Molecule | IC50 ([1]; mdck) | IC50 ([2]; cho-k1) | IC50 (Substance-K receptor) | IC50 [3] | Ki [3] | IC50 (Histamine H2 receptor) | IC50 (Melanocortin receptor 3) | IC50 (Cathepsin G) | IC50 ([1]; read-out: IC50) | Ki ([1]; read-out: Ki) | Ki ([1]; mdck) | Ki ([2]; cho-k1) | Ki (Substance-K receptor) | Ki (Histamine H2 receptor) | Ki (Melanocortin receptor 3) | Ki (Cathepsin G) | IC50 ([2]; read-out: IC50) | Ki ([2]; read-out: Ki)
1 | CC(C)(Oc1ccc(C2CC2(Cl)Cl)cc1)C(=O)O (stereo not given) [CIPROFIBRATE] | Not Active | Not Active | Not Active | Not Active | Not Active | Not Active | Not Active | Not Active | – | – | – | – | – | – | – | – | – | –
2 | Cc1cnc(C(=O)NCCc2ccc(S(=O)(=O)NC(=O)NC3CCCCC3)cc2)cn1 [GLIPIZIDE] | Not Active | Not Active | Not Active | Not Active | Not Active | Not Active | Not Active | Not Active | – | – | – | – | – | – | – | – | – | –
3 | CC(C)(C)c1ccc(S(=O)(=O)/C=C/C#N)cc1 [BAY-11-7085] | Not Active | Not Active | Not Active | Not Active | Not Active | Not Active | Not Active | Not Active | – | – | – | – | – | – | – | – | – | –
4 | Cc1cccc(Nc2ccccc2C(=O)O)c1C [MEFENAMIC ACID] | Not Active | Not Active | Not Active | Not Active | Not Active | Not Active | Not Active | Not Active | – | – | – | – | – | – | – | – | – | –
5 | NC[C@@H]1O[C@H](O[C@H]2[C@@H](O)[C@H](O[C@@H]3[C@@H](O)[C@H](N)C[C@H](N)[C@H]3O[C@H]3O[C@H](CN)[C@@H](O)[C@H](O)[C@H]3N)O[C@@H]2CO)[C@H](N)[C@@H](O)[C@@H]1O [FRAMYCETIN] | Not Active | Not Active | Not Active | Not Active | Not Active | Not Active | Not Active | Not Active | – | – | – | – | – | – | – | – | – | –
6 | O=C(O)c1cccnc1 [NIACIN] | Not Active | Not Active | Not Active | Not Active | Not Active | Not Active | Not Active | Not Active | – | – | – | – | – | – | – | – | – | –
7 | CC[C@]1(O)CC[C@H]2[C@@H]3CCC4=CCCC[C@@H]4[C@H]3CC[C@@]21C | – | Not Active | Not Active | Not Active | Not Active | Not Active | Not Active | Not Active | 2100 nM | 2080 nM | – | – | – | – | – | – | – | –
8 | COc1cc(CNC(=O)CCCC/C=C/C(C)C)ccc1O [CAPSAICIN] | Not Active | Not Active | Not Active | Not Active | Not Active | Not Active | Not Active | Not Active | – | – | – | – | – | – | – | – | – | –
9 | CN(C(=O)CCCOc1ccc2[nH]c(=O)ccc2c1)C1CCCCC1 [CILOSTAMIDE] | Not Active | Not Active | Not Active | Not Active | Not Active | Not Active | Not Active | Not Active | – | – | – | – | – | – | – | – | – | –
10 | CC(=O)OCC(CCn1cnc2cnc(N)nc21)COC(C)=O [FAMCICLOVIR] | Not Active | Not Active | Not Active | Not Active | Not Active | Not Active | Not Active | Not Active | – | – | – | – | – | – | – | – | – | –
11 | OCCN1CCN(CCCN2c3ccccc3Sc3ccc(Cl)cc32)CC1 [PERPHENAZINE] | Not Active | Not Active | Not Active | Not Active | Not Active | Not Active | Not Active | Not Active | – | – | – | – | – | – | – | – | – | –
12 | COC(=O)c1ccccc1O [METHYL SALICYLATE] | Not Active | Not Active | Not Active | Not Active | Not Active | Not Active | Not Active | Not Active | – | – | – | – | – | – | – | – | – | –
13 | C[C@H]([C@](O)(Cn1cncn1)c1ccc(F)cc1F)S(C)(=O)=O [GENACONAZOLE] | Not Active | Not Active | Not Active | Not Active | Not Active | Not Active | Not Active | Not Active | – | – | – | – | – | – | – | – | – | –
14 | Clc1cc2c(cc1Cl)Oc1cc(Cl)c(Cl)cc1O2 [2,3,7,8-TETRACHLORODIBENZO-P-DIOXIN] | Not Active | Not Active | Not Active | Not Active | Not Active | Not Active | Not Active | Not Active | – | – | – | – | – | – | – | – | – | –
15 | Nn1nnc2ccccc21 | Not Active | Not Active | Not Active | Not Active | Not Active | Not Active | Not Active | Not Active | – | – | – | – | – | – | – | – | – | –
16 | COc1ccccc1OCC(O)COC(N)=O (stereo not given) [METHOCARBAMOL] | Not Active | Not Active | Not Active | Not Active | Not Active | Not Active | Not Active | Not Active | – | – | – | – | – | – | – | – | – | –
17 | CC(C(=O)O)c1ccc(-c2ccccc2)c(F)c1 (stereo not given) [FLURBIPROFEN] | Not Active | Not Active | Not Active | Not Active | Not Active | Not Active | Not Active | Not Active | – | – | – | – | – | – | – | – | – | –
18 | Cc1c(F)c(N2CCNC(C)C2)cc2c1c(=O)c(C(=O)O)cn2C1CC1 (stereo not given) [GREPAFLOXACIN] | Not Active | Not Active | Not Active | Not Active | Not Active | Not Active | Not Active | Not Active | – | – | – | – | – | – | – | – | – | –
19 | Oc1ccccc1O [CATECHOL] | Not Active | Not Active | Not Active | Not Active | Not Active | Not Active | Not Active | Not Active | – | – | – | – | – | – | – | – | – | –
20 | O=P1(N(CCCl)CCCl)NCCCO1 (stereo not given) [CYCLOPHOSPHAMIDE ANHYDROUS] | Not Active | Not Active | Not Active | Not Active | Not Active | Not Active | Not Active | Not Active | – | – | – | – | – | – | – | – | – | –
21 | INSULIN HUMAN | Not Active | Not Active | Not Active | Not Active | Not Active | Not Active | Not Active | Not Active | – | – | Not Active | Not Active | Not Active | Not Active | Not Active | Not Active | – | –
22 | CS(=O)(=O)OCCCCOS(C)(=O)=O [BUSULFAN] | Not Active | Not Active | Not Active | Not Active | Not Active | Not Active | Not Active | Not Active | – | – | – | – | – | – | – | – | – | –
23 | CC(C)(CO)C(O)C(=O)NCCCO (stereo not given) [PANTHENOL] | Not Active | Not Active | Not Active | Not Active | Not Active | Not Active | Not Active | Not Active | – | – | – | – | – | – | – | – | – | –
24 | O=C(O)c1cc(=O)c2c(OCC(O)COc3cccc4oc(C(=O)O)cc(=O)c34)cccc2o1 [CROMOLYN] | Not Active | Not Active | Not Active | Not Active | Not Active | Not Active | Not Active | Not Active | – | – | – | – | – | – | – | – | – | –
25 | O=C(/C=C/c1ccc(O)c(O)c1)OCCc1ccccc1 [CAFFEIC ACID PHENETHYL ESTER] | – | Not Active | Not Active | Not Active | Not Active | Not Active | Not Active | Not Active | 3790 nM | 3760 nM | – | – | – | – | – | – | – | –
26 | Nc1nc(Cl)nc2c1ncn2[C@H]1C[C@H](O)[C@@H](CO)O1 [CLADRIBINE] | Not Active | Not Active | Not Active | Not Active | Not Active | Not Active | Not Active | Not Active | – | – | – | – | – | – | – | – | – | –
27 | CN1C[C@H](C(=O)N[C@]2(C)O[C@@]3(O)[C@@H]4CCCN4C(=O)[C@H](Cc4ccccc4)N3C2=O)C[C@@H]2c3cccc4[nH]cc(c34)C[C@H]21 [DIHYDROERGOTAMINE] | Not Active | – | Not Active | Not Active | Not Active | Not Active | Not Active | Not Active | – | – | – | – | – | – | – | – | 90 nM | 47 nM
